The supplement of paper PMC5908809

How the values were obtained:
[1] = tested on: normal NK cells expanded with K562-aAPC; assay: drug sensitivity score (DSS) (DSS units); higher = more sensitive; extreme values may be limits of the assay; conditions: 72 h; IL-2 2.5 ng/mL
Experimental: (§1)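 Drug sensitivity and resistance testing on K562-aAPC-expanded normal NK cells: 5 concentrations (10-fold steps over a 10,000-fold range), 72 h at 37 °C, viability by CellTiter-Glo normalised to DMSO and benzethonium chloride controls; DSS from the fitted curve.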

[2] = tested on: NKL (IL-2 2.5 ng/mL); assay: percent inhibition of viability; higher = more inhibition; conditions: 72 h
[3] = tested on: NK-92 (IL-2 2.5 ng/mL); assay: as above; conditions: 72 h
[4] = tested on: DERL-7 (IL-2 2.5 ng/mL); assay: as above; conditions: 72 h
[5] = tested on: normal primary NK cells, pool 1 (3 donors) (IL-2 2.5 ng/mL); assay: as above; conditions: 72 h
[6] = tested on: YT (IL-2 2.5 ng/mL); assay: as above; conditions: 72 h
[7] = tested on: SNK-6 (IL-2 2.5 ng/mL); assay: as above; conditions: 72 h
[8] = tested on: KAI3 (IL-2 2.5 ng/mL); assay: as above; conditions: 72 h
[9] = tested on: normal primary NK cells, pool 1 (3 donors), resting (IL-2 0 ng/mL); assay: as above; conditions: 72 h
[10] = tested on: normal primary NK cells, pool 3 (3 donors) (IL-2 2.5 ng/mL); assay: as above; conditions: 72 h
[11] = tested on: IMC-1 (IL-2 20 ng/mL); assay: as above; conditions: 72 h
[12] = tested on: NK-YS (IL-2 2.5 ng/mL); assay: as above; conditions: 72 h
[13] = tested on: KHYG-1 (IL-2 2.5 ng/mL); assay: as above; conditions: 72 h
[14] = tested on: normal primary NK cells, pool 2 (3 donors) (IL-2 2.5 ng/mL); assay: as above; conditions: 72 h
[15] = tested on: normal NK cells expanded with K562-aAPC; assay: as above; conditions: 72 h, IL-2 2.5 ng/mL
Experimental: as §1

[16] = tested on: NKL (IL-2 2.5 ng/mL); assay: drug sensitivity score (DSS) (DSS units); higher = more sensitive; extreme values may be limits of the assay; conditions: 72 h
[17] = tested on: NK-92 (IL-2 2.5 ng/mL); assay: as above; conditions: 72 h
[18] = tested on: DERL-7 (IL-2 2.5 ng/mL); assay: as above; conditions: 72 h
[19] = tested on: normal primary NK cells, pool 1 (3 donors) (IL-2 2.5 ng/mL); assay: as above; conditions: 72 h
[20] = tested on: YT (IL-2 2.5 ng/mL); assay: as above; conditions: 72 h
[21] = tested on: SNK-6 (IL-2 2.5 ng/mL); assay: as above; conditions: 72 h
[22] = tested on: KAI3 (IL-2 2.5 ng/mL); assay: as above; conditions: 72 h
[23] = tested on: normal primary NK cells, pool 1 (3 donors), resting (IL-2 0 ng/mL); assay: as above; conditions: 72 h
[24] = tested on: normal primary NK cells, pool 3 (3 donors) (IL-2 2.5 ng/mL); assay: as above; conditions: 72 h
[25] = tested on: IMC-1 (IL-2 20 ng/mL); assay: as above; conditions: 72 h
[26] = tested on: NK-YS (IL-2 2.5 ng/mL); assay: as above; conditions: 72 h
[27] = tested on: KHYG-1 (IL-2 2.5 ng/mL); assay: as above; conditions: 72 h
[28] = tested on: normal primary NK cells, pool 2 (3 donors) (IL-2 2.5 ng/mL); assay: as above; conditions: 72 h

Cc1ccc(NC(=O)c2ccc(CN3CCN(C)CC3)cc2)cc1Nc1nc(-c2cccnc2)cs1 [Masitinib] (max concentration tested 10000 nM)
Conditions	drug sensitivity score
[1]	6.42
[16]	5.08
[17]	4.64
[18]	7.97
[19]	5.41
[20]	6.67
[21]	3.3
[22]	5.72
[23]	5.07
[24]	4.72
[25]	5.34
[26]	7.84
[27]	6.29
[28]	4.61

percent inhibition of viability [%]
Conditions	1 nM	10 nM	100 nM	1000 nM	10000 nM
[2]	-13.2	-15.1	-14.2	-3.8	96.7
[3]	-1.64	6.19	1.77	-11.2	96.5
[4]	-4.46	4.7	-3.25	14.7	99.9
[5]	-9.84	-12.7	-4.81	-1.08	98.6
[6]	0.22	-0.59	-2.17	8.04	97.5
[7]	11	9.07	-33.7	-49.3	86.9
[8]	0.17	0.29	-11.5	2.65	96.5
[9]	-13.3	-12	9.4	-3	95.5
[10]	-9.21	-14.7	-12.2	-0.94	86.2
[11]	-6.41	-3.52	-8.01	-3.09	100
[12]	-1.57	-2.35	1.86	14.4	98.2
[13]	-4.84	3.44	-1.97	5.87	97.8
[14]	-10.8	-9.27	-8.85	-5.72	90.7
[15]	-1.56	-0.88	-2.2	6.06	99.6

Nc1ncn([C@H]2C[C@H](O)[C@@H](CO)O2)c(=O)n1 [Decitabine] (max concentration tested 10000 nM)
Conditions	drug sensitivity score
[1]	5.69
[16]	3.12
[17]	12.6
[18]	14.1
[19]	1.27
[20]	5.68
[21]	23.5
[22]	21
[23]	1.82
[24]	3.32
[25]	6.54
[26]	9.23
[27]	11.7
[28]	1.92

percent inhibition of viability [%]
Conditions	1 nM	10 nM	100 nM	1000 nM	10000 nM
[2]	0.73	9.17	7.62	27.4	15
[3]	14.1	7.13	28.5	42.4	81.5
[4]	0.66	-1.23	21.1	60.8	92.3
[5]	8.63	2.5	-2.22	-0.78	30.4
[6]	9.12	6.63	10.1	24.2	47.4
[7]	3.81	14.8	64.3	70.1	78.8
[8]	10.1	26.4	51.8	58.8	73
[9]	3.59	-12.2	2.07	-6.83	43.9
[10]	-2.52	-0.43	2.61	5.08	47.6
[11]	6.19	9.72	18.9	18.9	49.6
[12]	2.7	4.69	16.5	38	64.8
[13]	4.42	1.27	13.6	51.4	89.8
[14]	-3.35	-1.69	-11.7	3	32.2
[15]	3.63	6.61	11.9	21.8	56.1
